Read-outs that look alike come from different tables or passages of the source.
Assays:
[1] = test system: MKN45; assay: Proliferation inhibition of stomach cancer cells; type: cell-based; settings: Homo sapiens, MKN-45
Experimental: (§1) As a comparison for the inhibition activity, tamoxifen citrate (TAM) was used. In the Table, the concentration units are μM.
(§2) In the same way as in Example 9, the proliferation inhibition activity of naforidaifens A to G was measured with respect to six types of stomach cancer cells (St-4, MKN1, MKN7, MKN28, MKN45, MKN74). In the Table, the concentration units are μM.

[2] = test system: MKN7; assay: Proliferation inhibition of stomach cancer cells; type: cell-based; settings: Homo sapiens, MKN-7
Experimental: as §1, §2

[3] = test system: St-4; assay: Proliferation inhibition of stomach cancer cells; type: cell-based; settings: Homo sapiens
Experimental: as §1, §2

[4] = test system: MKN28; assay: Proliferation inhibition of stomach cancer cells; type: cell-based; settings: Homo sapiens, MKN-28
Experimental: as §1, §2

[5] = test system: MKN74; assay: Proliferation inhibition of stomach cancer cells; type: cell-based; settings: Homo sapiens, MKN-74
Experimental: as §1, §2

[6] = test system: MKN1; assay: Proliferation inhibition of stomach cancer cells; type: cell-based; settings: Homo sapiens, MKN-1
Experimental: as §1, §2

[7] = test system: central nervous system cancer cells; assay: Proliferation inhibition, central nervous system cancer cell panel (summary); type: cell-based; settings: read-out: cytotoxic activity (extent of effective concentration)
Text: as §1

[8] = molecular target: 20S proteasome (Homo sapiens, UniProt P28072+P28074+Q99436); assay: Proteasome inhibition activity, overall judgement; type: biochemical; settings: for Proteasome selectivity: judgement; for The evaluations (proteasome inhibition activity): overall judgement positive/negative
[9] = test system: Cathepsin B; assay: Cathepsin-like activity inhibition test; type: biochemical
Experimental: Cathepsin-Like Activity Inhibition Test
(§3) 1) To 20S proteasome, naforidaifen B adjusted to a concentration of 10 μM was added, and incubated at 30° C. for 10 min.
2) To the above test system, fluorescence labeled cathepsin including a 20S proteasome segmenting sequence was added, and reacted for 1 hr at 30° C.
(§4) 3) The fluorescent substance (AMC) released by the above reaction was excited with 360 nm light and assayed with 460 nm light.
(§5) 4) A test system to which naforidaifen B was not added was measured in the same way as (1) to (3) above, and the enzyme activity for the case of using naforidaifen B was measured.
(§6) 5) Stepwise diluted solutions containing naforidaifen B were prepared, and after carrying out the same evaluations as in (1) to (4), the 50% inhibition concentration (IC50) was determined.
6) As a positive control of the enzyme activity, the known proteasome inhibitor Clasto-Lactacystin β-Lactone (Lactacystin activator) and MGI32 were evaluated with the steps (1) to (5).

[10] = test system: OVCAR-8; assay: Proliferation inhibition of ovarian cancer cells; type: cell-based; settings: Homo sapiens
Experimental: as §1
(§7) In the same way as in Example 9, the proliferation inhibition activity of naforidaifens A to G was measured with respect to five types of ovarian cancer cells (OVCAR-3, OVCAR-4, OVCAR-5, OVCAR-8, AND SK-OV-3). In the Table, the concentration units are μM.

[11] = test system: OVCAR-3; assay: Proliferation inhibition of ovarian cancer cells; type: cell-based; settings: Homo sapiens
Experimental: as §1, §7

[12] = test system: OVCAR-4; assay: Proliferation inhibition of ovarian cancer cells; type: cell-based; settings: Homo sapiens
Experimental: as §1, §7

[13] = test system: SK-OV-3; assay: Proliferation inhibition of ovarian cancer cells; type: cell-based; settings: Homo sapiens
Experimental: as §1, §7

[14] = test system: OVCAR-5; assay: Proliferation inhibition of ovarian cancer cells; type: cell-based; settings: Homo sapiens
Experimental: as §1, §7

[15] = test system: SNB-78; assay: Inhibition of propagation of central nervous system cancer cells (sulforhodamin B); type: cell-based; settings: Homo sapiens, 48 h; SNB-78, two days of cultivation
Text: as §1

[16] = test system: SF-539; assay: as above; type: cell-based; settings: Homo sapiens, 48 h; SF-539, two days of cultivation
Text: as §1

[17] = test system: SNB-75; assay: as above; type: cell-based; settings: Homo sapiens, 48 h; SNB-75, two days of cultivation
Text: as §1

[18] = test system: SF-268; assay: as above; type: cell-based; settings: Homo sapiens, 48 h; SF-268, two days of cultivation
Text: as §1

[19] = test system: U251; assay: as above; type: cell-based; settings: Homo sapiens, U-251, 48 h; U251, two days of cultivation
Text: as §1

[20] = test system: SF-295; assay: as above; type: cell-based; settings: Homo sapiens, 48 h; SF-295, two days of cultivation
Text: as §1

[21] = molecular target: α-chymotrypsin (Bos taurus, UniProt P00766); assay: α-Chymotrypsin-like activity inhibition test; type: biochemical
Experimental: α-Chymotrypsin-Like Activity Inhibition Test
as §3
2) To the above test system, fluorescence labeled α-chymotrypsin including a 20S proteasome segmenting sequence was added, and reacted for 1 hr at 30° C.
as §4, §5, §6
6) As a positive control of the enzyme activity, the well-known proteasome inhibitor Clasto-Lactacystin β-Lactone (Lactacystin activator) and MGI32 were evaluated with the steps (1) to (5).

[22] = molecular target: 20S proteasome trypsin-like activity (Homo sapiens, UniProt Q99436); assay: Trypsin-like activity inhibition test; type: biochemical; settings: for remaining activity at 10 µM: read-out: % Control, Trypsin-like Activity
[23] = molecular target: 20S proteasome chymotrypsin-like activity (Homo sapiens, UniProt P28074); assay: Chymotrypsin-like activity inhibition test; type: biochemical; settings: for remaining activity at 10 µM: read-out: % Control, Chymotrypsin-like Activity
[24] = test system: HCC2998; assay: Proliferation inhibition of colon cancer cells; type: cell-based; settings: Homo sapiens, HCC 2998
Experimental: as §1
(§8) In the same way as in Example 9, the proliferation inhibition activity of naforidaifens A to G was measured with respect to five types of colon cancer cells (HCC2998, KM-12, HT-29, HCT-15, and HCT-116). In the Table, the concentration units are μM.

[25] = test system: HT-29; assay: Proliferation inhibition of colon cancer cells; type: cell-based; settings: Homo sapiens
Experimental: as §1, §8

[26] = test system: HCT-116; assay: Proliferation inhibition of colon cancer cells; type: cell-based; settings: Homo sapiens
Experimental: as §1, §8

[27] = test system: HCT-15; assay: Proliferation inhibition of colon cancer cells; type: cell-based; settings: Homo sapiens
Experimental: as §1, §8

[28] = test system: KM-12; assay: Proliferation inhibition of colon cancer cells; type: cell-based; settings: Homo sapiens, KM12
Experimental: as §1, §8

[29] = molecular target: 20S proteasome caspase-like activity (Homo sapiens, UniProt P28072); assay: Caspase-like activity inhibition test; type: biochemical; settings: for remaining activity at 10 µM: read-out: % Control, Caspase-like Activity

SMILES	GI50 [1]	GI50 [2]	GI50 [3]	GI50 [4]	GI50 [5]	GI50 [6]	The evaluations (proteasome inhibition activity) [8]	GI50 [10]	GI50 [11]	GI50 [12]	GI50 [13]	GI50 [14]	GI50 [15]	GI50 [16]	GI50 [17]	GI50 [18]	GI50 [19]	GI50 [20]	IC50 [23]	remaining activity at 10 µM [23]	other results
c1ccc(C2=C(c3ccc(OCCN4CCCCC4)cc3)c3ccc(OCCN4CCCCC4)cc3CC2)cc1 [Naforidaifen C, 4-[4-(2-piperidine-1-yl-ethoxy)phenyl]-7-(2-piperidine-1-yl-ethoxy)-3-phenyl-1,2-dihydronaphthalene]	2.14 µM	1.55 µM	1.58 µM	2.51 µM	1.2 µM	1.66 µM	positive	2.4 µM	1.66 µM	2.09 µM	2.04 µM	1.26 µM	1.82 µM	1.48 µM	1.51 µM	1.74 µM	1.48 µM	1.74 µM	3.2 µM	25.9%	IC50 ([7]; in general with respect to various central nervous system cancer cells): 1.4 to 1.9 µM; Proteasome selectivity [8]: present; Cathepsin B inhibition [9]: none; α-chymotrypsin inhibition [21]: none; IC50 [22]: > 10 µM; remaining activity at 10 µM [22]: 196%; GI50 [24]: 1.35 µM; GI50 [25]: 0.55 µM; GI50 [26]: 1.17 µM; GI50 [27]: 1.38 µM; GI50 [28]: 1.82 µM; IC50 [29]: 5.1 µM; remaining activity at 10 µM [29]: 31.3%
CN(C)CCOc1ccc(C2=C(c3ccccc3)CCc3cc(OCCN(C)C)ccc32)cc1 [Naforidaifen A, 4-[4-(2-dimethylamino-1-yl-ethoxy)phenyl]-7-(2-dimethylamino-1-yl-ethoxy)-3-phenyl-1,2-dihydronaphthalene]	1.74 µM	1.58 µM	1.48 µM	1.82 µM	1.41 µM	1.48 µM	negative	2.88 µM	1.62 µM	2.14 µM	2.29 µM	1.55 µM	1.82 µM	1.55 µM	1.48 µM	1.95 µM	1.45 µM	1.74 µM	> 10 µM	99.5%	IC50 [7]: 1.4 to 1.9 µM; GI50 [24]: 1.48 µM; GI50 [25]: 0.759 µM; GI50 [26]: 1.1 µM; GI50 [27]: 1.66 µM; GI50 [28]: 1.86 µM
CCN(CC)CCOc1ccc(C2=C(c3ccccc3)CCc3cc(OCCN(CC)CC)ccc32)cc1 [Naforidaifen E, 4-[4-(2-diethylamino-1-yl-ethoxy)phenyl]-7-(2-diethylamino-1-yl-ethoxy)-3-phenyl-1,2-dihydronaphthalene]	1.66 µM	1.41 µM	1.55 µM	1.82 µM	1.23 µM	1.41 µM	positive	2.45 µM	1.86 µM	2.19 µM	1.91 µM	1.58 µM	1.62 µM	1.86 µM	1.51 µM	1.82 µM	1.51 µM	1.82 µM	9.9 µM	49.6%	Proteasome selectivity [8]: present; Cathepsin B inhibition [9]: none; α-chymotrypsin inhibition [21]: none; IC50 [22]: > 10 µM; remaining activity at 10 µM [22]: 162%; GI50 [24]: 1.58 µM; GI50 [25]: 0.813 µM; GI50 [26]: 1.2 µM; GI50 [27]: 1.58 µM; GI50 [28]: 1.95 µM; IC50 [29]: > 10 µM; remaining activity at 10 µM [29]: 54.6%

Reference: US8183235B2, “Dihydronaphthalene compound and use thereof” (Tokyo University of Science Educational Foundation …, priority 2007, dated 2012)
